According to paper PMC12534982 (Journal of Experimental & Clinical Cancer Research : CR, 2025):

Experiments:
human DHODH = settings: cited from earlier work
Δ29 DHODH (N-truncated) = biological target: T1, Δ29 DHODH (N-truncated) (Homo sapiens, UniProt Q02127); experiment: In vitro DHODH enzyme activity assay; type: biochemical; settings: 1 mM DHO; ± SD
T1 construct: N-terminal truncated form of human DHODH (Δ29), where the N-terminal transmembrane domain was removed; made in house
Protocol: The assays to determine the inhibition constants of inhibitors of the recombinant DHODH enzymes are described in [28, 29].
The IC50 values were determined by fitting the equation V = V max/(1 + (I/IC50)^h) to the assay data using SigmaPlot14 (Systat Software Inc.). In this equation, V represents the measured enzyme activity, while V max indicates the maximum enzyme activity reached. I denotes the inhibitor concentration, and h describes the slope of the fitted curve.

SW620 cells [1] = experiment: Mitochondrial respiration (OCR) in intact cells; type: cell-based, human; settings: 24 h
Protocol: Oxygen consumption rate (OCR) was measured using a high-resolution respirometer (Oxygraph-2k, Oroboros Instruments, Innsbruck, Austria). SW620 cells (2.2 × 10^6) were cultured in 100-mm Petri dishes and treated with DMSO or NK-A 17E-233I (25 µM) for 24 h. Cells were harvested at 80% confluency using 0.25% trypsin/EDTA and resuspended in complete DMEM at a concentration of 5 × 10^5 cells/mL. The cells were subsequently analyzed in two 2 mL Oxygraph chambers. Real-time measurements of OCR were conducted at 37 °C under basal conditions and following the sequential addition of inhibitors targeting various mitochondrial respiratory complexes: oligomycin (2.5 μM) to inhibit complex V (to assess ATP-linked respiration and leak rate), carbonyl cyanide-p-trifluoromethoxyphenylhydrazone (FCCP) with stepwise titration in 0.5 μM increments (to evaluate maximal electron transport system respiratory capacity and reserve capacity), and rotenone (0.5 μM) and antimycin A (2.5 μM) to inhibit complex I and complex III, respectively (to measure non-mitochondrial oxygen consumption). The values of OCR were normalized to mitochondrial DNA copy number, which was quantified by qPCR using the primers referenced above. Data analysis was performed using DatLab7 (Oroboros, Austria) software.

SW620 cells [2] = settings: 96 h
SW620 cells [3] = experiment: Complex I- and complex II-dependent respiration (permeabilized cells); type: cell-based, human; settings: 100 µM, 24 h
Protocol: Following treatment, cells were detached using trypsin–EDTA, washed with PBS, and resuspended in MiR05 media (composed of 110 mM sucrose, 60 mM potassium-lactobionate, 0.5 mM EGTA, 3 mM MgCl2·6H2O, 20 mM taurine, 10 mM KH2PO4, 20 mM HEPES adjusted to pH 7.1 with KOH at 37 °C, and 1 g/L BSA) at a concentration of 5 × 10^5 cells/mL. The cells were then transferred into 2 mL Oxygraph chambers for real-time measurement of OCR. Initial permeabilization was achieved using 7 μg of digitonin, followed by the sequential addition of substrates and inhibitors: 5 mM ADP, 2 mM malate, 10 μM cytochrome c, 5 mM pyruvate, 10 mM glutamate, 10 mM succinate, 0.5 μM rotenone, and 2.5 μM antimycin A. Mitochondrial membrane integrity was confirmed through the addition of cytochrome c (10 μM), with observed changes in OCR remaining below 10%. Complex I-mediated respiration was evaluated following the addition of complex I substrates (malate/pyruvate/glutamate), while complex II-mediated respiration was assessed in the presence of the complex II substrate (succinate) and the complex I inhibitor (rotenone). Residual oxygen consumption after the addition of antimycin A was subtracted from all the results to yield mitochondria-specific rates. […] Oxygen consumption rates were expressed as picomoles (pmol) per second per million cells (Mill) and normalized to the mitochondrial copy number in each sample.

colorectal cancer cells [4] = experiment: Western blot; type: cell-based, human; settings: NK-A 17E-233I 25 µM; Brequinar
Protocol: Cancer cells (2.2 × 10^6) were cultured in 100-mm Petri dishes and treated with DMSO or NK-A 17E-233I (25 µM) for 48 h. Cells were harvested by scrapping into 2 × Laemmli buffer (4% SDS, 20% glycerol, 125 mM Tris–HCl, pH 6.8) and heated at 100 °C for 5 min. A 4 × Laemmli sample buffer containing β-mercaptoethanol was added to the cell lysates. The proteins were separated using sodium dodecyl sulfate polyacrylamide gel electrophoresis (SDS-PAGE) and subsequently transferred to polyvinylidene fluoride (PVDF) membranes (#88518; Thermo Fisher Scientific) following the manufacturer’s protocols. The membranes were blocked at room temperature for 1 h with 5% dried skimmed milk in Tris-buffered saline with Tween-20 (TBS-T) (20 mM Tris–HCl, pH 7.5, 150 mM NaCl, 0.1% Tween-20), and the blots were incubated with the corresponding antibodies at a dilution of 1:1000–1:3000 in a blocking buffer at 4 °C overnight.
Primary antibodies utilized in this study included: anti-human DHODH (#SC-166348; Santa Cruz), anti–CHK1-pS345 (#2348; Cell Signaling), anti-POLD2 (#29765–1-AP; Proteintech), anti-POLD1 (#15646–1-AP; Proteintech), anti-p53 (#SC-126; Santa Cruz), anti-KRAS, clone 4F3 (#SAB1404011; Sigma-Aldrich), anti-GAPDH (#ab9489; Abcam), anti–α-tubulin (#T9026; Sigma-Aldrich), anti-BAX (#SC-23959; Santa Cruz), anti-cytochrome c (#66264–1-IG; Proteintech), anti-DR5 (#3696; Cell Signaling, dilution 1:500), anti–caspase-8 (#SC-56070; Santa Cruz), and anti–caspase-3 (#9662; Cell Signaling, dilution 1:500). The membranes were incubated at room temperature for 1 h with secondary antibodies (diluted 1:3000–5000), either anti-rabbit (#A0545; Sigma-Aldrich) or anti-mouse IgG-horseradish peroxidase-conjugated (#A9044; Sigma-Aldrich), in TBS-T. The images were analyzed and quantified using ImageStudio software (LI-COR) or ImageQuant 10.2 TL analysis software (Cytiva Life Sciences).

SW620 cells [5] = experiment: DHODH-dependent respiration (permeabilized cells); type: cell-based, human; settings: 24 h; NK-A 17E-233I 25 µM, Brequinar 100 µM; excess exogenous DHO
Protocol: Cells were resuspended in MiR05 medium and transferred into the chambers of the Oxygraph-2k instruments. The OCR in digitonin-permeabilized cells was monitored in the presence of the complex I inhibitor (0.5 μM rotenone), 1 mM DHO, 3 mM ADP, 10 μM cytochrome c, and 30 μM Leflunomide. DHODH-mediated respiration was calculated by subtracting the residual respiration rate after the addition of 30 μM Leflunomide from the respiration rate measured in the presence of 0.5 μM rotenone, 1 mM DHO, 3 mM ADP, and 10 μM cytochrome c.

DHODH = test system: DHODH; set-up: method as in PMID 35184687; settings: 100 µM; same experimental setup; cited from earlier work
colorectal cancer cells [6] = experiment: Flow cytometry-based cell cycle analysis; set-up: species or system human; settings: washout 12 h; NK-A 17E-233I 25 µM, HU 1 mM
Protocol: Cancer cells (3 × 10^4) were cultured in 48-well plates and treated with DMSO or NK-A 17E-233I (25 µM) for 24 h. Following treatment, all wells were washed with PBS (#P4417; Sigma-Aldrich), and the cells were collected in Eppendorf tubes. The cells were harvested using 0.25% trypsin (#25200056; ThermoScientific) and 0.02% EDTA (1:1) (#17892; ThermoFisher Scientific) for 2 min, followed by the addition of DMEM. The tubes were then centrifuged at 500 × g for 5 min. The supernatant was discarded, and the pellets were fixed in 70% cold ethanol and stored at -20 °C for at least 1 h. The pellets were resuspended in 1 mL PBS and centrifuged at 500 × g at 4 °C for 5 min. The supernatant was discarded once again, and the pellets were subsequently reconstituted in a solution containing propidium iodide (PI; #25,535–16-4, Merck) and RNase (#N8080119, Applied Biosystems), followed by storage at 4 °C overnight. Cell cycle analysis was conducted using a CytoFLEX flow cytometer (Beckman Coulter; 405 nm laser). Cells were gated based on size and granularity on a forward scatter (FSC)/side scatter (SSC) plot, with cell debris excluded from the analysis. Mean fluorescence intensity from 1 × 10^4 cells was recorded. Data analysis was conducted using FlowJo software v10.8.1 (BD Life Sciences).

T1 sequence (Q02127 29-395, stated change not applied): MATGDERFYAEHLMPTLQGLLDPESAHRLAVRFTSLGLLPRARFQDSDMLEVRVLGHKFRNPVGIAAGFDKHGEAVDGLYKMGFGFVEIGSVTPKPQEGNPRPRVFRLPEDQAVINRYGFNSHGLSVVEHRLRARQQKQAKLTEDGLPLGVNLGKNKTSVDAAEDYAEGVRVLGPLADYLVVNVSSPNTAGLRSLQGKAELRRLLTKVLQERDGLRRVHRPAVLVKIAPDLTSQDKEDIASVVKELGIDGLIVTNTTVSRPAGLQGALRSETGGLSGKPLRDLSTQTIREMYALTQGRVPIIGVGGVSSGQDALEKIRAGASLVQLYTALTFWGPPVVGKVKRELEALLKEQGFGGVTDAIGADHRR

O=C1C(O)=C([C@H]2CC[C@H](c3ccc(Cl)cc3)CC2)C(=O)c2ccccc21 [Atovaquone]
mode of inhibition with respect to DHO (human DHODH): uncompetitive inhibitors

O=C(O)c1cc(=O)[nH]c(=O)[nH]1 [orotate]
Ki (human DHODH; competitive inhibitor concerning DHO): 11 µM

Cc1c(-c2ccc(-c3ccccc3F)cc2)nc2ccc(F)cc2c1C(=O)O [Brequinar, reference compound]
average of the fitted slopes (Δ29 DHODH (N-truncated)): 1.1 ± 0.2 | parameters of mitochondrial respiration in intact cells (SW620 cells [1]; 100 µM): decreased most of these respiration parameters | basal and ATP-linked respiration in intact cells (SW620 cells [1]; NK-A 17E-233I 25 µM, Brequinar 100 µM): significantly decreased | IC50 (SW620 cells [2]): 100 µM | complex II-mediated respiration (SW620 cells [3]): stimulated | levels of p53-mutant protein (colorectal cancer cells [4]): did not have an observed effect | DHODH-mediated oxygen consumption rate (SW620 cells [5]): reduced

C/C(O)=C(\C#N)C(=O)Nc1ccc(C(F)(F)F)cc1 [Teriflunomide]
mode of inhibition with respect to DHO (human DHODH): uncompetitive inhibitors

O=C1CC(C(=O)O)NC(=O)N1 (stereo not drawn) [DHO, dihydroorotate]
ΔTm (DHODH): 3.5 °C

NC(=O)NO [HU, hydroxyurea, reference compound]
cell cycle after washout (colorectal cancer cells [6]): resumed proliferation
